Holding throughout (type): in vivo, C. elegans
In assay [1] the test system is worms containing Punc-54::Q82::GFP+Punc-54::torsinA+Punc54::torsinA (ΔE). Description: Screen for reduction of polyglutamine protein aggregates in worms with wt and mutant torsinA. The note with it: differentiated by Q82::GFP lines without torsinA, with wt torsinA or with mutant torsinA. The protocol: (§1) C elegans nematodes were grown at 20° C. on NGM plates as described by Brenner (Brenner, Genetics, 1974, 77: 71-94). Several transgenic C. elegans lines were used for primary screens of the Prestwick small molecule library. A transgenic worm line expressing Punc-54::Q82-GFP; with both wild type (“wt”) (Punc=54: :torsinA) or mutant (Punc-54::torsinA(ΔE)). Torsin-A expresses a phenotype that results in visible protein aggregation under fluorescent microscope. Transgenic worms were plated on drug plates and progeny were studied for a return to soluble protein.
(§2) Drugs were administered to C. elegans according to a standard procedure (Rand and Johnson, Methods Cell Biol, 1995, 48: 187-204), by mixing the solubilized drug with the agar medium on which the worms are grown. This mode of administration allows the continuous exposure of worms to the drug.
Each drug was first dissolved in an appropriate solvent, followed by adding the drug solution into pre-autoclaved media, with the volume of drug solution already taken into account. […] Each plate was seeded with 100 μl concentrated E. coli OP50 bacteria.
(§3) The screening assays used to identify the compounds use protein aggregation readouts to determine the specificities of molecular action. […]
(§4) The methods for the aggregate analysis assay are described in Caldwell et al. (Hum Mol Genetics, 2003, 12(3): 307-319). […] MetaMorph Software (Universal Imaging Inc.) was used for pseudocoloration of images, image overlay, and aggregate size quantitation. For each worm line analyzed, average aggregate size was determined by capturing images of all aggregates in the posterior region of 30 L3-staged animals (for Q82::GFP aggregates) or all aggregates in 30 adult animals/day (for Q19::GFP analyses) at 1000× magnification. […]
(§5) To see the effect of the candidate compounds on suppressing protein misfolding and aggregation, five gravid adult worms were placed onto each drug plate and grown at 20° C. for approximately 3 days. Thirty Fl worms at L3 stage and young adult stage were counted for aggregate number.

The test system of assay [2] is worms expressing Punc-54::Q82::GFP+Punc-54::torsinA with wt torsinA only. Description: Protein aggregate assay in worms with wt torsinA only. The protocol:
as §1, §2
Each drug was first dissolved in an appropriate solvent, followed by adding the drug solution into pre-autoclaved media, with the volume of drug solution already taken into account. […]
as §3, §4, §5

Assay [3] deals with protein misfolding and aggregation in transgenic worms. Put plainly: Corrective assay of protein aggregation (drug from L2 stage onward). The note with it: drug exposure from L2 stage onward; scored at L3 and young adult. The protocol:
To see the corrective effect of the candidate drug compounds on protein misfolding and aggregation, five gravid adult worms were placed onto a solvent control plate and grown at 20° C. for approximately 3 days. 35-40 Fl worms at L2 stage were picked and transferred to a drug plate. Thirty worms at L3 stage were counted for aggregate number 8 hours later. Thirty young adults were analyzed 32 hours later.
To calculate the scaled effectiveness of special regimen of drugs on worms based on standardized decrease in protein aggregates. The following formula was used: (A−B)/(A−C)×100%, where
A=number of aggregates for worms growing on solvent control plates
B=number of aggregates for worms grown on the specific drug plate for the entire life of the worms
C=number of aggregates for worms that received exposure from L2 stage (until adulthood)
If the regimen has no effect, the value would equal 0%. Conversely, if the regimen was as effective as raising the worms on the drug for their entire life, the value would equal 100%.

Assay [4] relates to Pdat-1::GFP+Pdat-1::α-synuclein+Pdat-1:: torsinA (ΔE) worms. Put plainly: α-synuclein toxicity assay, mutant torsinA. The method in brief: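 C. elegans lines expressing GFP and α-synuclein in dopamine neurons, with wild-type or ΔE torsinA, exposed to compounds; readout is the share of worms keeping all 4 wild-type CEP dopamine neurons as 4-day adults.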

Here are results for 1 molecule from patent US20070203079A1, “Methods of using small molecule compounds for neuroprotection” (priority 2005, published 2007).

Where a name gives a salt, the structure may show the parent alone.

With `C=N[C@@H](C(=O)N[C@@H]1C(=O)N2[C@@H]1SC(C)(C)[C@@H]2C(=O)O)c1ccccc1` [Compound 235, Metampicillin sodium salt], in assay [1], the “Specificity in worm assay” value is listed as “wt torsinA”. Moreover, the “reduction of protein aggregation” value in assay [2] was “reduced protein aggregation”. In addition, in assay [3], the “corrective effect on protein aggregation” value is recorded as “seem to be beneficial”. For the same molecule, the “enhanced DA neuron survival” value in assay [4] was “no significant neuroprotection”.
